Holding throughout (type): biochemical
Assay [1] deals with T1, rabbit reticulocyte-derived 15-lipoxygenase (Oryctolagus cuniculus, UniProt P12530).
T1 construct: Rabbit reticulocyte-derived 15-lipoxygenase; from tissue; host or cells: rabbit reticulocytes
T1 sequence (P12530 1-663): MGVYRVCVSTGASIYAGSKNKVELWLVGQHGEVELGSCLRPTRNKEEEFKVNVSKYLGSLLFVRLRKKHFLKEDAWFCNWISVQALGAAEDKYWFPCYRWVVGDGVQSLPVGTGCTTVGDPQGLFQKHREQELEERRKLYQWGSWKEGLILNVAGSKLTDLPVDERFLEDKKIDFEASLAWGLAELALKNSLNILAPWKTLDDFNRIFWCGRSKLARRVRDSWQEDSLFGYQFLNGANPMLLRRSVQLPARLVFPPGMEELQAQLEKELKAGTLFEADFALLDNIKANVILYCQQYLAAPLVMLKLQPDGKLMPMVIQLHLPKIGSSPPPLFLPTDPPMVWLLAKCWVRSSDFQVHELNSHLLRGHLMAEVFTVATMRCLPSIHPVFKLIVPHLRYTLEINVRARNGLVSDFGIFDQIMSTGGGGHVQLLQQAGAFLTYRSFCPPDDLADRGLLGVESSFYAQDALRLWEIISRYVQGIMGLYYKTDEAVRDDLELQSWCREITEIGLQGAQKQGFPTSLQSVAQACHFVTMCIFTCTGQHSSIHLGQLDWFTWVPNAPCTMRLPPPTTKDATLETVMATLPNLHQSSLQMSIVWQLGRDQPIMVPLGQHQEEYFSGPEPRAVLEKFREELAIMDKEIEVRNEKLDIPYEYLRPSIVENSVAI
Briefly: 15-Lipoxygenase activity inhibitory action. On the procedure: The inhibitory action of the compound of the present invention with respect to the activity of the present enzyme was examined using rabbit reticulocyte-derived 15-lipoxygenase.
Rabbit reticulocyte-derived 15-lipoxygenase was reacted with 260 μM of linoleic acid and the amount of 13-hydroperoxide which was a reaction product was measured using an absorption spectrometer.

For assay [2], the system named is guinea pig liver microsome-derived lipid peroxidase. Briefly: Lipid peroxidase activity inhibitory action. Particulars: 3 μM. On the procedure: The inhibitory action of the compound according to the present invention with respect to the activity of the present enzyme was examined using guinea pig liver microsome-derived lipid peroxidase.
Dunkin-Hartley guinea pig lung-derived lipid peroxidase was reacted with 0.25 M of polyvalent unsaturated fatty acids and the amount of malondialdehyde which was a reaction product was measured by an absorbance determination method. 3 μM of the compound according to the present invention dissolved in dimethyl sulfoxide was added to the reaction system and the inhibition rate of malondialdehyde generation (lipid peroxidase activity inhibition rate) was measured.

The target in assay [3] is T2, guinea pig lung-derived leukotriene C4 synthase (Cavia porcellus, UniProt A6XA80).
T2 construct: guinea pig lung-derived leukotriene C4 synthase; from tissue; host or cells: Dunkin-Hartley guinea pig lung
T2 sequence (A6XA80 1-150): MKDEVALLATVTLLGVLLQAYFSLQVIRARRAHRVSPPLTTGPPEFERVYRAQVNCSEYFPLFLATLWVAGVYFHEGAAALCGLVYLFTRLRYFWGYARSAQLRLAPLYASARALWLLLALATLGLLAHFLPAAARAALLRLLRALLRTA
In words: Leukotriene C4 synthase activity inhibitory action. Particulars: read-out: leukotriene C4 synthase activity inhibition rate. How it is done: The inhibitory action according to the compound of the present invention with respect to the activity of the present enzyme was examined using guinea pig lung-derived leukotriene C4 synthase.
Dunkin-Hartley guinea pig lung-derived leukotriene C4 synthase was reacted with 2.50 μg/mL of leukotriene A4 and the amount of leukotriene C4 which was a reaction product was measured by an enzyme-linked immunosorbent assay. 3 μM of the compound of the present invention dissolved in dimethyl sulfoxide was added to the reaction system and the inhibition rate of leukotriene C4 generation (leukotriene C4 synthase activity inhibition rate) was measured.

Assay [4] deals with rattlesnake-derived phospholipase A2-II. In words: Phospholipase A2-II activity inhibitory action. Particulars: 3 μM. How it is done:
The inhibitory action of the compound according to the present invention with respect to the activity of the present enzyme was examined using rattlesnake-derived phospholipase A2-II.
The rattlesnake-derived phospholipase A2-II was reacted with 0.030 μCi of 1-palmitoyl-2-[1-^14C]oleoyl-L-3-phosphatidylcholine and the amount of ^14C oleate which was a reaction product was measured by a radiation measurement method. 3 μM of the compound according to the present invention dissolved in dimethyl sulfoxide was added to the reaction system and the inhibition rate of ^14C oleate generation (phospholipase A2-II activity inhibition rate) was measured.

The values below come from patent US20160145242A1, “PHENYLIMIDAZOLE DERIVATIVE, AND THERAPEUTIC MEDICINE OR PREVENTIVE MEDICINE FOR INFLAMMATORY DISEASE, ETC” (NIPPON SODA CO., LTD., priority 2013, published 2016).

SMILES strings stand for the structures.

As for `CC(=O)N1CCN(c2ccc(N)c(-n3ccnc3)c2)CC1` [Compound 1-1, 4-acetyl-1-(4-amino-3-imidazole-1-yl-phenyl)piperazine], the inhibition at 3 µM amounted to 49% in assay [1] (3 μM, substrate linoleic acid 260 μM, read-out: 15-lipoxygenase activity inhibition rate) and 27% in assay [3]. Besides, in assay [1] (estimated from 49% inhibition at 3 μM, read-out: 50% inhibitory concentration with respect to 15-lipoxygenase activity), the IC50 is ~3 µM. In assay [2], the “lipid peroxidase activity inhibition rate” value amounted to 13%. For the same molecule, the “phospholipase A2-II activity inhibition rate” value in assay [4] is 12%.

Broadly, the inhibition is the change of the read-out against control, counted positive when it falls.
